Test results from PubChem BioAssay AID330 (DTP/NCI, 2004).
Values joined by “and” are separate entries in the source; they are usually repeats but may differ in a detail not shown here. Equal entries are not always repeated. Toxic doses and inconclusive results are not listed. Numbered stars: 1 amine (or outer) side, 2 acyl side, 3 side chain; on linkers, the order of the positions; unused ones are H or OH. Bridge positions count the residues as written; N and C are the ends. Square brackets hold non-standard residues; d marks the D form. Peptide text beside a SMILES is read from it. I, II: the chains in the order shown. * marks the point of attachment. ξ: configuration not given here. Quinaldoyl(3-OH,6-OMe) = COc1ccc2nc(C(=O)*)c(O)cc2c1; X12 = CCC(=O)OC1CC=NN([*:1])C1C(=O)[*:2]; X8 = CC(=O)OC1CC=NN([*:1])C1C(=O)[*:2]; ξNMeVal(3-OH) = CNC(C(=O)O)C(C)(C)O; Sar = CNCC(=O)O

System: P388 leukemia ip, CD2F1 mice, survival T/C
Assay: NCI In Vivo Anticancer Drug Screen. Data for tumor model P388 Leukemia (intraperitoneal) in CD2F1 (CDF1) mice
Conditions: endpoint: median survival time, higher = longer survival
Summary of the method: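 Mice carrying the transplanted tumor received test compound or vehicle. Survival was recorded in each group, and the value is the treated-group measurement divided by that of the vehicle-treated control group.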

[1] = dose: 50.0 mg/kg/injection, schedule: Q01DX005 (ip), vehicle: saline with Tween-80
[2] = dose: 100.0 mg/kg/injection, schedule: Q01DX005 (ip), vehicle: saline with Tween-80
[3] = dose: 25.0 mg/kg/injection, schedule: Q01DX009 (ip), vehicle: saline with Tween-80
[4] = dose: 50.0 mg/kg/injection, schedule: Q01DX009 (ip), vehicle: saline with Tween-80
[5] = dose: 100.0 mg/kg/injection, schedule: Q01DX009 (ip), vehicle: saline with Tween-80
[6] = dose: 200.0 mg/kg/injection, schedule: Q01DX009 (ip), vehicle: saline with Tween-80
[7] = dose: 100.0 mg/kg/injection, schedule: Q04DX003 (ip), vehicle: saline with Tween-80
[8] = dose: 50.0 mg/kg/injection, schedule: Q04DX003 (ip), vehicle: saline
[9] = dose: 12.5 mg/kg/injection, schedule: Q01DX009 (ip), vehicle: saline with Tween-80
[10] = dose: 100.0 mg/kg/injection, schedule: Q01DX009 (ip), vehicle: saline
[11] = dose: 200.0 mg/kg/injection, schedule: Q01DX009 (ip), vehicle: saline

C(#Cc1c2ccccc2c(C#Cc2ccccc2)c2c(-c3ccccc3)cccc12)c1ccccc1
T/C [1]: 97 % of control
T/C [2]: 87 % of control

CCCCCCC(C)N=[N+]([O-])CBr (stereo not given)
T/C (dose: 100.0 mg/kg/injection, schedule: Q01DX001 (ip), vehicle: other): 114 % of control
T/C (dose: 200.0 mg/kg/injection, schedule: Q01DX001 (ip), vehicle: other): 111 % of control
T/C (dose: 400.0 mg/kg/injection, schedule: Q01DX001 (ip), vehicle: other): 103 % of control

COc1ccc(Nc2ccc([N+](=O)[O-])c3nonc23)cc1
T/C [1]: 92 % of control
T/C [2]: 87 % of control

COc1ccc(CSc2ncnc3nc[nH]c23)cc1
T/C [3]: 91 % of control
T/C [4]: 87 % of control

CCC(=O)OC1CC=NN2C(=O)C(NC(=O)c3nc4ccc(OC)cc4cc3O)COC(=O)C(C(C)(C)O)N(C)C(=O)CN(C)C(=O)CNC(=O)C3C(OC(C)=O)CC=NN3C(=O)C(NC(=O)c3nc4ccc(OC)cc4cc3O)COC(=O)C(C(C)(C)O)N(C)C(=O)CN(C)C(=O)CNC(=O)C12 (stereo not given) (I: {Quinaldoyl(3-OH,6-OMe)}-S[X12]G[Sar][ξNMeVal(3-OH)] / II: {Quinaldoyl(3-OH,6-OMe)}-S[X8]G[Sar][ξNMeVal(3-OH)]; ester I:1-II:C, I:C-II:1; configuration not given here)
T/C (dose: 20.0 micrograms/kg/injection, schedule: Q01DX005 (ip), vehicle: DMSO): 106 % of control
T/C (dose: 40.0 micrograms/kg/injection, schedule: Q01DX005 (ip), vehicle: DMSO): 153 % of control
T/C (dose: 80.0 micrograms/kg/injection, schedule: Q01DX005 (ip), vehicle: DMSO): 174 % of control
T/C (dose: 160.0 micrograms/kg/injection, schedule: Q01DX005 (ip), vehicle: DMSO): 155 % of control

COc1c(Br)c2c(c(OC)c1OC)-c1ccc(OC)c(=O)cc1C(NC(C)=O)CC2 (stereo not given)
T/C (dose: 1.56 mg/kg/injection, schedule: Q01DX009 (ip), vehicle: Klucel (hydroxypropylcellulose) (HPC)): 165 % of control
T/C (dose: 3.12 mg/kg/injection, schedule: Q01DX009 (ip), vehicle: Klucel (hydroxypropylcellulose) (HPC)): 101 % of control and 96 % of control

C=CC1(C)CCC(C(C)C(=O)/C=C/C(C)(C)O)O1 (stereo not given)
T/C (dose: 22.0 mg/kg/injection, schedule: Q01DX005 (ip), vehicle: Klucel (hydroxypropylcellulose) (HPC)): 105 % of control
T/C (dose: 44.0 mg/kg/injection, schedule: Q01DX005 (ip), vehicle: Klucel (hydroxypropylcellulose) (HPC)): 113 % of control
T/C (dose: 88.0 mg/kg/injection, schedule: Q01DX005 (ip), vehicle: Klucel (hydroxypropylcellulose) (HPC)): 114 % of control
T/C (dose: 176.0 mg/kg/injection, schedule: Q01DX005 (ip), vehicle: Klucel (hydroxypropylcellulose) (HPC)): 118 % of control

COc1ccc(NC(=O)CCC(=O)O)cc1
T/C [5]: 95 % of control
T/C [6]: 95 % of control
T/C (dose: 400.0 mg/kg/injection, schedule: Q01DX009 (ip), vehicle: saline with Tween-80): 91 % of control

CC1=Nc2ccccc2C(=O)NN1
T/C (dose: 100.0 mg/kg/injection, schedule: Q04DX002 (ip), vehicle: saline with Tween-80): 101 % of control
T/C (dose: 200.0 mg/kg/injection, schedule: Q04DX002 (ip), vehicle: saline with Tween-80): 101 % of control
T/C (dose: 400.0 mg/kg/injection, schedule: Q04DX002 (ip), vehicle: saline with Tween-80): 102 % of control

CN1CCCC2C(c3ccccc3)C(C3=NCCCC3)C(c3ccccc3)CC21 (stereo not given)
T/C [3]: 100 % of control
T/C (dose: 25.0 mg/kg/injection, schedule: Q04DX003 (ip), vehicle: saline with Tween-80): 113 % of control
T/C [4]: 100 % of control
T/C (dose: 50.0 mg/kg/injection, schedule: Q04DX003 (ip), vehicle: saline with Tween-80): 100 % of control
T/C [5]: 104 % of control
T/C [7]: 100 % of control

CC1CCC(C)N1P(=O)(N1CC1)N1CC1 (stereo not given)
T/C (dose: 6.25 mg/kg/injection, schedule: Q04DX003 (ip), vehicle: saline): 108 % of control
T/C (dose: 12.5 mg/kg/injection, schedule: Q01DX009 (ip), vehicle: saline): 110 % of control
T/C (dose: 25.0 mg/kg/injection, schedule: Q01DX009 (ip), vehicle: saline): 90 % of control
T/C (dose: 25.0 mg/kg/injection, schedule: Q04DX003 (ip), vehicle: saline): 160 % of control and 200 % of control
T/C [8]: 155 % of control

Cc1ccc(C)c(NC(=O)/C=N/O)c1
T/C [1]: 98 % of control
T/C [2]: 110 % of control
T/C (dose: 200.0 mg/kg/injection, schedule: Q01DX005 (ip), vehicle: saline with Tween-80): 105 % of control

CN1CCN=C1c1ccc(NC(=O)c2ccc(C(=O)Nc3ccc(C4=NCCN4C)cc3)c([N+](=O)[O-])c2)cc1
T/C (dose: 0.78 mg/kg/injection, schedule: Q01DX005 (ip), vehicle: saline with Tween-80): 110 % of control and 113 % of control
T/C (dose: 1.56 mg/kg/injection, schedule: Q01DX005 (ip), vehicle: saline with Tween-80): 112 % of control and 114 % of control
T/C (dose: 3.13 mg/kg/injection, schedule: Q01DX005 (ip), vehicle: saline with Tween-80): 124 % of control

NC(CCl)=NCC12CC3CC(CC(C3)C1)C2
T/C (dose: 12.5 mg/kg/injection, schedule: Q01DX009 (ip), vehicle: Klucel (hydroxypropylcellulose) (HPC)): 90 % of control

CC1OC(OCc2ccc3c(c2)C(=O)c2ccccc2C3=O)CC(N)C1O (stereo not given)
T/C (dose: 1.56 mg/kg/injection, schedule: Q01DX009 (ip), vehicle: water): 105 % of control
T/C (dose: 3.12 mg/kg/injection, schedule: Q01DX009 (ip), vehicle: water): 104 % of control
T/C (dose: 6.25 mg/kg/injection, schedule: Q01DX009 (ip), vehicle: water): 100 % of control
T/C (dose: 12.5 mg/kg/injection, schedule: Q01DX009 (ip), vehicle: water): 100 % of control
T/C (dose: 25.0 mg/kg/injection, schedule: Q01DX009 (ip), vehicle: water): 103 % of control
T/C (dose: 50.0 mg/kg/injection, schedule: Q01DX009 (ip), vehicle: water): 92 % of control

COc1cc2c(cc1OC)C(CC1CCN(C)CC1)NCC2 (stereo not given)
T/C (dose: 50.0 mg/kg/injection, schedule: Q01DX005 (ip), vehicle: saline): 106 % of control
T/C (dose: 100.0 mg/kg/injection, schedule: Q01DX005 (ip), vehicle: saline): 103 % of control
T/C (dose: 200.0 mg/kg/injection, schedule: Q01DX005 (ip), vehicle: saline): 103 % of control

CC(C)Oc1nc(N2CCNCC2)nc2c1CCC2
T/C (dose: 15.0 mg/kg/injection, schedule: Q01DX005 (ip), vehicle: saline): 101 % of control
T/C (dose: 30.0 mg/kg/injection, schedule: Q01DX005 (ip), vehicle: saline): 94 % of control
T/C (dose: 60.0 mg/kg/injection, schedule: Q01DX005 (ip), vehicle: saline): 101 % of control

Oc1nc(-c2ccccc2)sc1-c1ccc(Cl)cc1
T/C [9]: 93 % of control
T/C [3]: 86 % of control
T/C [6]: 98 % of control

O=C(O)C1CCN1 (stereo not given)
T/C [10]: 93 % of control
T/C [11]: 86 % of control
T/C (dose: 300.0 mg/kg/injection, schedule: Q01DX009 (ip), vehicle: saline): 86 % of control

CCOc1ccn(CC(=O)c2ccc(Cl)s2)c(=O)n1
T/C [7]: 95 % of control
T/C (dose: 200.0 mg/kg/injection, schedule: Q04DX003 (ip), vehicle: saline with Tween-80): 90 % of control
T/C (dose: 400.0 mg/kg/injection, schedule: Q04DX003 (ip), vehicle: saline with Tween-80): 104 % of control

O=C(CCSSCCC(=O)ON1C(=O)CCC1=O)ON1C(=O)CCC1=O
T/C (dose: 6.25 mg/kg/injection, schedule: Q01DX009 (ip), vehicle: saline with Tween-80): 100 % of control
T/C [9]: 105 % of control
T/C [3]: 112 % of control

CC1C(C(=O)NCCc2ccccc2)CC2CCCCN21 (stereo not given)
T/C (dose: 60.0 mg/kg/injection, schedule: Q01DX005 (ip), vehicle: saline with Tween-80): 102 % of control
T/C (dose: 120.0 mg/kg/injection, schedule: Q01DX005 (ip), vehicle: saline with Tween-80): 96 % of control

COC(=O)N[Si](C)(C)C
T/C (dose: 50.0 mg/kg/injection, schedule: Q01DX009 (ip), vehicle: saline): 93 % of control
T/C [10]: 98 % of control
T/C [11]: 100 % of control

O=NN1CCCNC1=O
T/C (dose: 12.5 mg/kg/injection, schedule: Q04DX003 (ip), vehicle: saline): 118 % of control
T/C (dose: 20.0 mg/kg/injection, schedule: Q01DX009 (ip), vehicle: saline with Tween-80): 163 % of control
T/C (dose: 37.5 mg/kg/injection, schedule: Q01DX009 (ip), vehicle: saline with Tween-80): 163 % of control
T/C (dose: 40.0 mg/kg/injection, schedule: Q01DX009 (ip), vehicle: saline with Tween-80): 231 % of control
T/C [8]: 172 % of control
T/C (dose: 66.0 mg/kg/injection, schedule: Q04DX003 (ip), vehicle: saline): 179 % of control
T/C (dose: 75.0 mg/kg/injection, schedule: Q01DX009 (ip), vehicle: saline with Tween-80): 86 % of control
T/C (dose: 100.0 mg/kg/injection, schedule: Q04DX003 (ip), vehicle: saline): 191 % of control and 216 % of control
